# Reference: patent publication US10028933B2, “Compositions and methods for inhibiting the growth of multi-drug resistant microbes” (priority 2015, dated 2018)
# “Also recorded” adds a separate entry of the source.
# Legend:
# [1] = test system: Salmonella Typhimurium; details: cited from earlier work
# [2] = test system: Francisella tularensis; details: cited from earlier work
# [3] = long term oral exposures up to 33 weeks; cited from earlier work
# [4] = preclinical studies; cited from earlier work
# [5] = test system: MRSA; experiment: bacterial killing assay of CF clinical MRSA isolate in media (optical absorbance density, 24 hours); type: cell-based
# [6] = test system: human CF and non-CF MDMs; experiment: macrophage viability assay at 24 h
# [7] = test system: P. aeruginosa; details: AR-13 alone
# [8] = test system: B. cenocepacia; experiment: direct bacterial killing assay in media alone (optical absorbance density over 24 hours)
# [9] = test system: P. aeruginosa; experiment: direct bacterial killing assay in media alone of CF clinical P. aeruginosa isolate (24 hours); details: media devoid of human macrophages or neutrophils, n=3
# [10] = test system: B. cenocepacia strain k56-2; details: 5 μM AR-13 alone
Compound,antibacterial activity against intracellular Salmonella Typhimurium in macrophages [1],antibacterial activity against intracellular Francisella tularensis in macrophages [2],safety profile in phase I study [3],accumulation in tissues relative to blood level concentrations [4],blood brain barrier penetration [4],"killing of MRSA in media ([5]; 24 hours, media)","reduction of optical absorbance density of MRSA compared to no treatment ([5]; CF clinical MRSA isolate, 24 hour period, n=3)","AR-13 concentration of greatest efficacy against MRSA (dose titration) ([5]; dose titration 5, 2.5, 1.25 μM, 24 hours, n=3) [µM]",AR-13 concentrations tolerated by CF and non-CF macrophages and neutrophils ([6]; CF and non-CF macrophages and neutrophils),"macrophage viability ([6]; human CF and non-CF MDMs, uninfected or infected with B. cenocepacia, 24 h)",AR-13 concentrations resulting in increased toxicity ([6]; uninfected MDMs),reduction in P. aeruginosa burden in CF neutrophils ([7]; CF neutrophils) [%],reduction in P. aeruginosa burden in non-CF neutrophils ([7]; non-CF neutrophils) [%],"reduction of optical absorbance density of B. cenocepacia compared to no treatment ([8]; AR-13 alone vs B. cenocepacia alone, media, 24 hour period, n=3)","direct killing / bacterial growth of B. cenocepacia in media alone ([8]; media alone, 24 hours, AR-13 5 μM)",direct killing of P. aeruginosa in media [9],reduction in B. cenocepacia burden in infected CF and non-CF macrophages [10] [%]
NCC(=O)Nc1ccc(-n2nc(C(F)(F)F)cc2-c2ccc3c(ccc4ccccc43)c2)cc1 [AR-12],antibacterial activity,antibacterial activity,acceptable safety profile,exceeding the blood level concentrations by several fold,rapid blood brain barrier penetration,,,,,,,,,,,,
"NS(=O)(=O)Nc1ccc(-n2nc(C(F)(F)F)cc2-c2ccc3c(ccc4ccccc43)c2)cc1 [AR-13, N-{4-[5-(Phenanthren-2-yl)-3-(trifluoromethyl)-1H-pyrazol-1-yl]phenyl}sulfuric diamide]",,,,,,bacterial optical density increases as the dose of AR-13 decreases,about 1.3 fold,5,up to 10 μM,no significant differences in cell viability; also recorded: does not impact macrophage viability,above 10 μM,70,66,about 1.3 fold,significant reduction in bacterial growth; also recorded: direct killing effect,did not demonstrate direct killing; also recorded: did not enhance bacterial killing in media; also recorded: no direct effect,23
